# Measured values published in patent publication US9657360B2, “Detection of viral infection” (priority 2011, dated 2017).
# Residues, ends and D or L forms follow the SMILES beside them. *: point of attachment. Cbz = O=C(OCc1ccccc1)*
# Assays:
# Hendra virus = format: cell-based
SMILES,Hendra virus replication (HeV titres) (Hendra virus),HeLa cell viability (HeLa cells)
Cc1ccc(S(=O)(=O)/C=C/C#N)cc1 [Bay11-7082],reduced (not significantly),not adversely impacting HeLa cell viability
CC(C)C[C@@H](C=O)NC(=O)[C@H](CC(C)C)NC(=O)[C@H](CC(C)C)NC(=O)OCc1ccccc1 [MG-132] (Cbz-Leu-Leu-Leu-aldehyde),significantly reduced,not adversely impacting HeLa cell viability
